US20250368645A1, “BETA CARBOLINE ANALOGUES AS SELECTIVE AND BIASED KAPPA OPIOID RECEPTORS AGONISTS FOR TREATING VARIOUS ASSOCIATED PATHOPHYSIOLOGICAL CONDITIONS” (COUNCIL OF SCIENTIFIC AND INDUSTRIAL RESEARCH, priority 2022, published 2025)
Like-named read-outs stand apart in the source and are kept apart here.

How the values were obtained:
[1] = system: paclitaxel (PTX)-treated mice; experiment: Paclitaxel-induced peripheral neuropathy model; assay type: in vivo
[2] = target: T1, human KOR (Homo sapiens, UniProt P41145); experiment: GloSensor assay, Gi-mediated cAMP inhibition in HEK-293T cells transfected with human KOR; assay type: cell-based;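 for agonist at KOR (pIC50): value taken from a statement in the text not a table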
Target sequence in this assay (P41145 whole entry): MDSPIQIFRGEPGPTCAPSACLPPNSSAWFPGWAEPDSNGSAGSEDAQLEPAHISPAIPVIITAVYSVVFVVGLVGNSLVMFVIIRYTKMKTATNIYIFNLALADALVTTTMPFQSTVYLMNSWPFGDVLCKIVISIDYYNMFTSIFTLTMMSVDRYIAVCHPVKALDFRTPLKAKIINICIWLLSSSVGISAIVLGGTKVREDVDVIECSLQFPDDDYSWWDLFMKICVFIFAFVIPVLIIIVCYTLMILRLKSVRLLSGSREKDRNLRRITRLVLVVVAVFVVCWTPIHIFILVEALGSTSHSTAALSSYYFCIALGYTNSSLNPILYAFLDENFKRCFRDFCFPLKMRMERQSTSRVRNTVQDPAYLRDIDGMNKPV

[3] = target: DOR (Homo sapiens, UniProt P41143); experiment: GloSensor assay at DOR; assay type: cell-based; conditions: given as Log IC50 (negative values)
[4] = target: MOR (Homo sapiens, UniProt P35372); experiment: GloSensor assay at MOR; assay type: cell-based; conditions: given as Log IC50 (negative values)
[5] = system: C57Bl/6 mice; experiment: Hargreaves assay for thermal analgesia after intracerebroventricular administration; assay type: in vivo; conditions: 10 nmol
[6] = target: T1, human KOR; experiment: β-arrestin2 Tango assay in HTLA cells transiently transfected with human KOR; assay type: cell-based; conditions: Table 2, KOR; read-out: B-arrestin Tango Assay (pEC50) (converted)
Target sequence in this assay (P41145 whole entry, added parts left off): as the sequence (P41145 whole entry) above

[7] = system: C57Bl/6 mice; experiment: Tail flick assay for analgesia; assay type: in vivo
[8] = system: SD rats; experiment: Neuropathic pain induced by chronic constriction injury (CCI) of sciatic nerve; assay type: in vivo, rat
[9] = 8abd 5 and 10 mg/kg p.o., duloxetine 10 mg/kg, 16 days
[10] = 8abd 10 mg/kg/day p.o., U50488 5 mg/kg/day i.p., 7 days, tested 16 hours after drug administration

Sequence of MOR (P35372 whole entry): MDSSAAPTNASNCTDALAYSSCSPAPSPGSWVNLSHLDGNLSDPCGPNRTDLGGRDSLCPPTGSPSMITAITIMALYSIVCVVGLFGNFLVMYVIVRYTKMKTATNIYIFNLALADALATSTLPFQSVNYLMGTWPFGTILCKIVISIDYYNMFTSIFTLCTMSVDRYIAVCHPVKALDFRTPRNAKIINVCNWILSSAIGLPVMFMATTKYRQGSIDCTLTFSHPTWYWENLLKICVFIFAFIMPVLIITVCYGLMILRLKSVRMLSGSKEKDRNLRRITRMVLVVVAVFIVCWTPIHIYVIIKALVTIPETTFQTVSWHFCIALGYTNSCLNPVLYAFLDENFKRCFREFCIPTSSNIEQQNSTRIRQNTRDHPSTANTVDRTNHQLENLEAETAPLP
Sequence of DOR (P41143 whole entry): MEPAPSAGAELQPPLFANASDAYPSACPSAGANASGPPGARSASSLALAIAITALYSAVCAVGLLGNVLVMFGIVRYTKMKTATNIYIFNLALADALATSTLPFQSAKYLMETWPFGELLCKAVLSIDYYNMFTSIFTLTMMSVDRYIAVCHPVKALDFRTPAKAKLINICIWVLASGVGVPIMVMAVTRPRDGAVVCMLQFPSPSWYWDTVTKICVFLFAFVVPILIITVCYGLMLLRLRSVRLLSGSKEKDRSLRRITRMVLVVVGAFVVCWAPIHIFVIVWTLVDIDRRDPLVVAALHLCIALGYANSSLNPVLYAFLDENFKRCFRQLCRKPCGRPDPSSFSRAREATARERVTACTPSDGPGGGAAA

Fc1ccc(-n2c[n+]3ccc4c5ccccc5[nH]c4c3c2-c2ccc(Br)cc2)cc1.[Cl-] [8abd, 1-(4-Bromophenyl)-2-(4-fluorophenyl)-2,11-dihydrolmidazo[1′,5′:1,2]pyrido[3,4-b]indol-4-ium chloride]
mechanical pain (mechanical hyperalgesia, Von frey hair test), chronic administration [1, 9]: significantly improved | thermal hyperalgesia (Hargreaves test), chronic administration [1, 9]: significantly improved | improvement in both pain behaviors relative to duloxetine ([1]; chronic administration): better improvement in both pain behaviors as compared to duloxetine | G-Protein Bias factor (IC50 -Glosensor/- EC50 - Tango) ([2]; KOR, GloSensor versus Tango): 2.33 | IC50 ([2]; Table 2, KOR, read-out: GloSensor Assay (pIC50) (converted)): 1.05 nM | IC50 ([2]; given as Log IC50 (negative values), agonist activity, inhibition of FSK-stimulated cAMP, read-out: GloSensor Assay (Log IC50) KOR (converted)): 5.01 nM | IC50 ([2]; read-out: agonist at KOR (pIC50) (converted)): < 31.6 nM | IC50 [3]: > 10000 nM | IC50 [4]: > 10000 nM | analgesic activity (paw withdrawal latency) [5]: exhibited analgesic activity | EC50 [6]: 224 nM | tail flick latency time ([7]; 10 mg/kg or 5 mg/kg p.o., in comparison to vehicle treated mice): significantly increased | duration of the analgesic effect ([7]; 8abd 5 and 10 mg/kg p.o., U50488 5 mg/kg i.p.): comparable to U50488 | analgesic effect in presence of selective KOR antagonist Norbinaltrophamine (NBN) ([7]; NBN 5 mg/kg i.p. (legend: 10 mg/kg i.p.)): completely blocked | CCI-induced thermal hyperalgesia, acute administration ([8]; 8abd 10 mg/kg p.o., U50488 5 mg/kg i.p., Hargreaves): robustly inhibited | CCI-induced mechanical pain, acute administration ([8]; 8abd 10 mg/kg p.o., U50488 5 mg/kg i.p., von frey): robustly inhibited | CCI-induced mechanical pain, sub-chronic administration [8, 10]: significantly blocked | CCI-induced thermal hyperalgesia, sub-chronic administration [8, 10]: significantly blocked
